The source of these data is ChEMBL document CHEMBL4219219, “The synthesis and antistaphylococcal activity of N-sulfonaminoethyloxime derivatives of dehydroabietic acid” (Bioorg Med Chem Lett, 2018).

≈ marks a conversion by molar mass, not a printed value. Calls of active or inactive are those of the source. The calls are words filed in the database; no cut-off is given here.

Series [1] relates to Staphylococcus aureus. The series can be described thus: Antistaphylococcal activity against Staphylococcus aureus Newman treated with increasing concentration of test compound everyday for 12 hrs measured after 20 days by two-fold serial dilution method. The format is functional.
For the next series, the system named is NCI-H23. In words: Cytotoxicity against human H23 cells assessed as decrease in cell survival at 20 times MIC after 24 hrs by MTT assay. It is filed as cell-based. The conditions noted are these: nci-h23, 24 h. On the technique in general: Tetrazolium dyes change colour on reduction, which living cells bring about.
Series [2] relates to Staphylococcus aureus. In words: Antistaphylococcal activity against oxacillin/tetracycline-resistant Staphylococcus aureus NRS-100 after 18 hrs by two-fold serial dilution method. It is filed as functional. To be noted: NRS-100, 18 h.
A further series relates to SCLC-21H. The series can be described thus: Cytotoxicity against human SCLC-21H cells assessed as decrease in cell survival at 20 times MIC after 24 hrs by MTT assay. The format is cell-based.
Series [3] has as its system Staphylococcus aureus. The series can be described thus: Metabolic stability in Staphylococcus aureus Newman at MIC after 12 hrs by LC-MS analysis. It is filed as ADME, organism-based. The conditions noted are these: in vivo.
For a further series, the system named is WiDr. In words: Cytotoxicity against human WiDr cells assessed as decrease in cell survival at 20 times MIC after 24 hrs by MTT assay. The format is cell-based.
In the next series the test system is J82. The series can be described thus: Cytotoxicity against human J82 cells assessed as decrease in cell survival at 20 times MIC after 24 hrs by MTT assay. The conditions noted are these: j82, 24 h. It is filed as cell-based.
For series [4], the system named is Staphylococcus aureus. The series can be described thus: Antistaphylococcal activity against erythromycin-resistant Staphylococcus aureus NRS-70 treated with increasing concentration of test compound everyday for 12 hrs measured after 20 days by two-fold serial dilution method. It is filed as functional.
Series [5] in a line: Metabolic stability in Sprague-Dawley rat plasma after 0.5 to 24 hrs by LC-MS analysis. The format is ADME, cell-free.
A further series has as its system HGC-27. In words: Cytotoxicity against human HGC27 cells assessed as decrease in cell survival at 20 times MIC after 24 hrs by MTT assay. It is filed as cell-based. The conditions noted are these: hgc-27, 24 h.
Series [6] relates to Staphylococcus aureus. The series can be described thus: Antistaphylococcal activity against erythromycin-resistant Staphylococcus aureus NRS-70 after 18 hrs by two-fold serial dilution method. The format is functional. The conditions noted are these: NRS-70, 18 h.
The subject of series [7] is Staphylococcus aureus. In words: Antistaphylococcal activity against aminoglycosides/tetracycline-resistant Staphylococcus aureus NRS-1 after 18 hrs by two-fold serial dilution method. The format is functional. To be noted: NRS-1, 18 h.
Series [8] has as its system Staphylococcus aureus. In words: Antistaphylococcal activity against Staphylococcus aureus Newman after 18 hrs by two-fold serial dilution method. The format is functional.
Series [9] concerns Staphylococcus aureus. The series can be described thus: Antistaphylococcal activity against linezolid-resistant Staphylococcus aureus NRS-271 containing phage type E-MRSA 15 after 18 hrs by two-fold serial dilution method. It is filed as functional. To be noted: NRS-271, 18 h.
Series [10] concerns Staphylococcus aureus. The series can be described thus: Antistaphylococcal activity against gentamicin-resistant Staphylococcus aureus NRS-108 after 18 hrs by two-fold serial dilution method. The conditions noted are these: NRS-108, 18 h. It is filed as functional.
A further series concerns Escherichia coli. The series can be described thus: Antibacterial activity against Escherichia coli AB1157 at 50 ug/ml after 18 hrs by two-fold serial dilution method. The format is functional, organism-based.
The next series has as its system HEK-293T. The series can be described thus: Cytotoxicity against HEK293T cells assessed as decrease in cell survival at 20 times MIC after 24 hrs by MTT assay. The format is cell-based. To be noted: human.

`Cc1noc(C)c1S(=O)(=O)NCCO/N=C1\C[C@H]2[C@](C)(C(=O)O)CCC[C@]2(C)c2cc(Br)c(C(C)C)cc21`: the MIC in the series with Staphylococcus aureus [1] is 6.25 to 12.5 µg/mL (≈ 10.2 to 20.5 µM); against Staphylococcus aureus [2], 3.13 to 6.25 µg/mL (≈ 5.13 to 10.2 µM); in the series with Staphylococcus aureus [4] it was 6.25 to 12.5 µg/mL (≈ 10.2 to 20.5 µM); against Staphylococcus aureus [6] it was 1.56 to 3.13 µg/mL (≈ 2.55 to 5.13 µM); in the series on Staphylococcus aureus [7], 1.56 to 3.13 µg/mL (≈ 2.55 to 5.13 µM); in the series with Staphylococcus aureus [8], 1.56 to 3.13 µg/mL (≈ 2.55 to 5.13 µM). The MIC in the series on Staphylococcus aureus [9] and with Staphylococcus aureus [10] was 1.56 to 3.13 µg/mL (≈ 2.55 to 5.13 µM) each time. The Activity result in the series on NCI-H23, with SCLC-21H, in the series on WiDr, in the series with J82, with HGC-27 and in the series on HEK-293T was “Non-Toxic” each time. For the same compound, the Stability result (in the series on Staphylococcus aureus [3]; in series [5]) was “Stable” in each case. Also, in the series with Escherichia coli, the result was inactive.

On to `CC(C)c1cc2c(cc1Br)[C@@]1(C)CCC[C@@](C)(C(=O)O)[C@@H]1C/C2=N\OCCNS(=O)(=O)c1ccccc1F`, for which the MIC was in the range of 3.13 to 6.25 µg/mL (≈ 5.13 to 10.3 µM) with Staphylococcus aureus [2]; 1.56 to 3.13 µg/mL (≈ 2.56 to 5.13 µM) against Staphylococcus aureus [6]; 1.56 to 3.13 µg/mL (≈ 2.56 to 5.13 µM) in the series on Staphylococcus aureus [7]; 1.56 to 3.13 µg/mL (≈ 2.56 to 5.13 µM) against Staphylococcus aureus [8]; 1.56 to 3.13 µg/mL (≈ 2.56 to 5.13 µM) in the series on Staphylococcus aureus [9]; 3.13 to 6.25 µg/mL (≈ 5.13 to 10.3 µM) against Staphylococcus aureus [10]. Also, the result in the series on Escherichia coli was inactive.

Regarding `CC(C)c1cc2c(cc1Br)[C@@]1(C)CCC[C@@](C)(C(=O)O)[C@@H]1C/C2=N\OCCNS(=O)(=O)c1ccc(C(F)(F)F)cc1`, the Activity entry with NCI-H23, with SCLC-21H, with WiDr, with J82, in the series on HGC-27 and in the series on HEK-293T was “Non-Toxic” each time. Besides, the MIC in the series with Staphylococcus aureus [2] lay within 0.78 to 1.56 µg/mL (≈ 1.18 to 2.37 µM); with Staphylococcus aureus [6] it was 0.78 to 1.56 µg/mL (≈ 1.18 to 2.37 µM); in the series with Staphylococcus aureus [7] it was 0.78 to 1.56 µg/mL (≈ 1.18 to 2.37 µM); in the series on Staphylococcus aureus [8], 1.56 to 3.13 µg/mL (≈ 2.37 to 4.75 µM); against Staphylococcus aureus [9] it was 0.78 to 1.56 µg/mL (≈ 1.18 to 2.37 µM); in the series on Staphylococcus aureus [10], 0.78 to 1.56 µg/mL (≈ 1.18 to 2.37 µM). Besides, the Stability result (in the series on Staphylococcus aureus [3]; in series [5]) was “Stable” in each case. Moreover, the outcome in the series with Escherichia coli was inactive.

Regarding `Cc1ccc(C)c(S(=O)(=O)NCCO/N=C2\C[C@H]3[C@](C)(C(=O)O)CCC[C@]3(C)c3cc(Br)c(C(C)C)cc32)c1`, the MIC with Staphylococcus aureus [2] lay in the range of 1.56 to 3.13 µg/mL (≈ 2.52 to 5.05 µM); against Staphylococcus aureus [6] it was 0.78 to 1.56 µg/mL (≈ 1.26 to 2.52 µM); in the series with Staphylococcus aureus [7] it was 3.13 to 6.25 µg/mL (≈ 5.05 to 10.1 µM); with Staphylococcus aureus [8] it was 1.56 to 3.13 µg/mL (≈ 2.52 to 5.05 µM); with Staphylococcus aureus [9], 3.13 to 6.25 µg/mL (≈ 5.05 to 10.1 µM); against Staphylococcus aureus [10], 1.56 to 3.13 µg/mL (≈ 2.52 to 5.05 µM). Further, the result in the series with Escherichia coli was inactive.

With `CC(C)c1cc2c(cc1Br)[C@@]1(C)CCC[C@@](C)(C(=O)O)[C@@H]1C/C2=N\OCCNS(=O)(=O)c1ccccc1Cl`, the MIC against Staphylococcus aureus [2] lay within 1.56 to 3.13 µg/mL (≈ 2.49 to 5 µM); in the series with Staphylococcus aureus [6] it was 0.78 to 1.56 µg/mL (≈ 1.25 to 2.49 µM); with Staphylococcus aureus [7], 1.56 to 3.13 µg/mL (≈ 2.49 to 5 µM); in the series on Staphylococcus aureus [8] it was 0.78 to 1.56 µg/mL (≈ 1.25 to 2.49 µM); in the series on Staphylococcus aureus [9], 1.56 to 3.13 µg/mL (≈ 2.49 to 5 µM); in the series on Staphylococcus aureus [10] it was 1.56 to 3.13 µg/mL (≈ 2.49 to 5 µM). Besides, the outcome in the series with Escherichia coli was inactive.

As for `CC(C)c1cc2c(cc1Br)[C@@]1(C)CCC[C@@](C)(C(=O)O)[C@@H]1C/C2=N\OCCNS(=O)(=O)c1ccc(Cl)cc1Cl`, the MIC was 0.78 to 1.56 µg/mL (≈ 1.18 to 2.36 µM) in the series with Staphylococcus aureus [2]; 0.39 to 0.78 µg/mL (≈ 0.59 to 1.18 µM) against Staphylococcus aureus [6]; 0.78 to 1.56 µg/mL (≈ 1.18 to 2.36 µM) in the series on Staphylococcus aureus [7]; 0.78 to 1.56 µg/mL (≈ 1.18 to 2.36 µM) with Staphylococcus aureus [8]; 0.78 to 1.56 µg/mL (≈ 1.18 to 2.36 µM) in the series with Staphylococcus aureus [9]; 0.78 to 1.56 µg/mL (≈ 1.18 to 2.36 µM) with Staphylococcus aureus [10]. The outcome with Escherichia coli was inactive.

Consider `CC(C)c1cc2c(cc1Br)[C@@]1(C)CCC[C@@](C)(C(=O)O)[C@@H]1C/C2=N\OCCNS(=O)(=O)c1ccc2ccccc2c1`, for which the MIC against Staphylococcus aureus [2] fell in the range of 3.13 to 6.25 µg/mL (≈ 4.88 to 9.74 µM); in the series with Staphylococcus aureus [6], 1.56 to 3.13 µg/mL (≈ 2.43 to 4.88 µM); against Staphylococcus aureus [7], 3.13 to 6.25 µg/mL (≈ 4.88 to 9.74 µM); with Staphylococcus aureus [8], 1.56 to 3.13 µg/mL (≈ 2.43 to 4.88 µM); with Staphylococcus aureus [9], 3.13 to 6.25 µg/mL (≈ 4.88 to 9.74 µM); in the series with Staphylococcus aureus [10], 1.56 to 3.13 µg/mL (≈ 2.43 to 4.88 µM). Moreover, the result with Escherichia coli was inactive.

On to `CC(C)c1cc2c(cc1Br)[C@@]1(C)CCC[C@@](C)(C(=O)O)[C@@H]1C/C2=N\OCCNS(=O)(=O)c1ccc(Cl)cc1`, for which the MIC was 1.56 to 3.13 µg/mL (≈ 2.49 to 5 µM) against Staphylococcus aureus [2]; 0.78 to 1.56 µg/mL (≈ 1.25 to 2.49 µM) with Staphylococcus aureus [6]; 1.56 to 3.13 µg/mL (≈ 2.49 to 5 µM) in the series with Staphylococcus aureus [7]; 0.78 to 1.56 µg/mL (≈ 1.25 to 2.49 µM) in the series with Staphylococcus aureus [8]; 1.56 to 3.13 µg/mL (≈ 2.49 to 5 µM) against Staphylococcus aureus [9]; 1.56 to 3.13 µg/mL (≈ 2.49 to 5 µM) with Staphylococcus aureus [10]. The result in the series with Escherichia coli was inactive.

Turning to `CC(C)c1cc2c(cc1Br)[C@@]1(C)CCC[C@@](C)(C(=O)O)[C@@H]1C/C2=N\OCCNS(=O)(=O)c1ccc(Br)c(C(F)(F)F)c1`, the MIC in the series on Staphylococcus aureus [2], in the series on Staphylococcus aureus [6], against Staphylococcus aureus [7], in the series on Staphylococcus aureus [8], with Staphylococcus aureus [9] and in the series on Staphylococcus aureus [10] was 0.78 to 1.56 µg/mL (≈ 1.06 to 2.11 µM) throughout. For the same compound, the outcome in the series with Escherichia coli was inactive.

Turning to `Cc1ccc(S(=O)(=O)NCCO/N=C2\C[C@H]3[C@](C)(C(=O)O)CCC[C@]3(C)c3cc(Br)c(C(C)C)cc32)cc1`, the MIC against Staphylococcus aureus [2] was 3.13 to 6.25 µg/mL (≈ 5.17 to 10.3 µM); against Staphylococcus aureus [6] it was 1.56 to 3.13 µg/mL (≈ 2.58 to 5.17 µM); with Staphylococcus aureus [7], 3.13 to 6.25 µg/mL (≈ 5.17 to 10.3 µM); against Staphylococcus aureus [8], 1.56 to 3.13 µg/mL (≈ 2.58 to 5.17 µM); in the series on Staphylococcus aureus [9], 3.13 to 6.25 µg/mL (≈ 5.17 to 10.3 µM); against Staphylococcus aureus [10] it was 1.56 to 3.13 µg/mL (≈ 2.58 to 5.17 µM). Also, the result with Escherichia coli was inactive.
